Reference: patent US9962369B2, “Methods and compositions for transdermal delivery” (SPRAYABLE HOLDINGS, INC., priority 2014, dated 2018)

Experiments:
human skin tissue = experiment: Penetration rate of AI compound in AI-helper composition through human skin in vitro, modified Franz cells; assay type: in vitro ADME
Method: Penetration rate of AI compound in the AI-helper composition through human skin were measured in vitro by modified Franz cells. A Franz cell had two chambers: the top sample chamber and the bottom receiving chamber. The human skin tissue (450-500 μm thick) that separated the top and the receiving chambers was isolated from the anterior or posterior thigh areas.

[1] = Solubility of AI compound in AI-helper composition (AI compound added until saturated); assay type: physicochemical; conditions: water
Method: Solubility was tested by adding small amounts of AI compound to a set volume of an AI-helper composition at a certain temperature until the AI-helper composition was saturated with the AI compound, and measuring the amount of the AI compound added to calculate the solubility of the AI compound in the AI-helper composition at the temperature.

In the case of `COc1ccc2[nH]cc(CCNC(C)=O)c2c1` [Melatonin], the “Skin penetration rate of melatonin” value (human skin tissue; 1% melatonin (a suspension) without helper esters, 20° C.) is reported as 1.153 ± 0.111 μg/cm^2/h, the “Skin penetration rate of melatonin” value (human skin tissue; melatonin 1% w/v, Tryptophan isopropyl ester•HA 6% w/v, HA = 1/2H2SO4, water, 20° C.) is reported as 15.928 ± 1.476 μg/cm^2/h and the “Skin penetration rate of melatonin” value (human skin tissue; melatonin 1% w/v, Tryptophan isopropyl ester•HA 6% w/v, HA = 2/3H3PO4, water, 20° C.) is reported as 15.691 ± 1.571 μg/cm^2/h. For the same compound, the “Skin penetration rate of melatonin” value (human skin tissue; melatonin 1% w/v, Tryptophan isopropyl ester•HA 6% w/v, HA = Benzoic acid, water, 20° C.) was 14.665 ± 1.589 μg/cm^2/h, the “Skin penetration rate of melatonin” value (human skin tissue; melatonin 1% w/v, Tryptophan isopropyl ester•HA 6% w/v, HA = Butyric acid, water, 20° C.) was 15.378 ± 1.598 μg/cm^2/h and the “Skin penetration rate of melatonin” value (human skin tissue; melatonin 1% w/v, Tryptophan isopropyl ester•HA 6% w/v, HA = Citric acid, water, 20° C.) was 15.371 ± 1.287 μg/cm^2/h. The “Skin penetration rate of melatonin” value (human skin tissue; melatonin 1% w/v, Tryptophan isopropyl ester•HA 6% w/v, HA = H2SO4, water, 20° C.) was 16.780 ± 1.891 μg/cm^2/h, the “Skin penetration rate of melatonin” value (human skin tissue; melatonin 1% w/v, Tryptophan isopropyl ester•HA 6% w/v, HA = HBr, water, 20° C.) was 15.971 ± 1.785 μg/cm^2/h and the “Skin penetration rate of melatonin” value (human skin tissue; melatonin 1% w/v, Tryptophan isopropyl ester•HA 6% w/v, HA = HCl, water, 20° C.) was 16.678 ± 1.567 μg/cm^2/h. The “Skin penetration rate of melatonin” value (human skin tissue; melatonin 1% w/v, Tryptophan isopropyl ester•HA 6% w/v, HA = HF, water, 20° C.) was 16.165 ± 1.167 μg/cm^2/h, the “Skin penetration rate of melatonin” value (human skin tissue; melatonin 1% w/v, Tryptophan isopropyl ester•HA 6% w/v, HA = HI, water, 20° C.) was 14.467 ± 1.183 μg/cm^2/h and the “Skin penetration rate of melatonin” value (human skin tissue; melatonin 1% w/v, Tryptophan isopropyl ester•HA 6% w/v, HA = Lactic acid, water, 20° C.) was 15.897 ± 1.109 μg/cm^2/h. For the same compound, the “Skin penetration rate of melatonin” value (human skin tissue; melatonin 1% w/v, Tyrosine isopropyl ester•HA 6% w/v, HA = 1/2H2SO4, water, 20° C.) was 15.978 ± 2.136 μg/cm^2/h, the “Skin penetration rate of melatonin” value (human skin tissue; melatonin 1% w/v, Tyrosine isopropyl ester•HA 6% w/v, HA = 1/3H3PO4, water, 20° C.) was 15.848 ± 1.782 μg/cm^2/h and the “Skin penetration rate of melatonin” value (human skin tissue; melatonin 1% w/v, Tyrosine isopropyl ester•HA 6% w/v, HA = 2/3H3PO4, water, 20° C.) was 16.156 ± 3.124 μg/cm^2/h. The “Skin penetration rate of melatonin” value (human skin tissue; melatonin 1% w/v, Tyrosine isopropyl ester•HA 6% w/v, HA = Acetic acid, water, 20° C.) was 15.983 ± 3.471 μg/cm^2/h, the “Skin penetration rate of melatonin” value (human skin tissue; melatonin 1% w/v, Tyrosine isopropyl ester•HA 6% w/v, HA = Benzoic acid, water, 20° C.) was 17.002 ± 3.257 μg/cm^2/h and the “Skin penetration rate of melatonin” value (human skin tissue; melatonin 1% w/v, Tyrosine isopropyl ester•HA 6% w/v, HA = Butyric acid, water, 20° C.) was 16.125 ± 1.972 μg/cm^2/h. The “Skin penetration rate of melatonin” value (human skin tissue; melatonin 1% w/v, Tyrosine isopropyl ester•HA 6% w/v, HA = Citric acid, water, 20° C.) was 16.246 ± 2.319 μg/cm^2/h, the “Skin penetration rate of melatonin” value (human skin tissue; melatonin 1% w/v, Tyrosine isopropyl ester•HA 6% w/v, HA = H2SO4, water, 20° C.) was 16.632 ± 1.357 μg/cm^2/h and the “Skin penetration rate of melatonin” value (human skin tissue; melatonin 1% w/v, Tyrosine isopropyl ester•HA 6% w/v, HA = HBr, water, 20° C.) was 16.578 ± 2.117 μg/cm^2/h. The “Skin penetration rate of melatonin” value (human skin tissue; melatonin 1% w/v, Tyrosine isopropyl ester•HA 6% w/v, HA = HF, water, 20° C.) was 15.765 ± 1.946 μg/cm^2/h, the “Skin penetration rate of melatonin” value (human skin tissue; melatonin 1% w/v, Tyrosine isopropyl ester•HA 6% w/v, HA = HI, water, 20° C.) was 15.863 ± 1.970 μg/cm^2/h and the “Skin penetration rate of melatonin” value (human skin tissue; melatonin 1% w/v, Tyrosine isopropyl ester•HA 6% w/v, HA = Lactic acid, water, 20° C.) was 16.029 ± 2.467 μg/cm^2/h. For the same compound, the “Skin penetration rate of melatonin” value (human skin tissue; no helper ester (None), melatonin 1 % w/v (suspension) in water, 20 °C) was 1.153 ± 0.111 μg/cm^2/h, the “Skin penetration rate of AI compound” value (human skin tissue; no isoleucine ester (None), AI compound 0.5 % w/v (a suspension) in water, 20 °C) was 1.147 ± 0.123 μg/cm^2/h and the “Skin penetration rate of AI compound” value (human skin tissue; no leucine ester (None), AI compound 0.5 % w/v (a suspension) in water, 20 °C) was 1.147 ± 0.123 μg/cm^2/h. For the same compound, the “Skin penetration rate of melatonin” value (human skin tissue; no proline ester (None), melatonin 0.5 % w/v (suspension) in water, 20 °C) was 1.147 ± 0.123 μg/cm^2/h, the “Skin penetration rate of AI compound” value (human skin tissue; no tryptophan ester (None), AI compound 1 % w/v (suspension) in water, 20 °C) was 1.153 ± 0.111 μg/cm^2/h and the “Skin penetration rate of melatonin” value (human skin tissue; no tyrosine ester (None), melatonin 1 % w/v (suspension) in water, 20 °C) was 1.153 ± 0.111 μg/cm^2/h. The “Skin penetration rate of AI compound” value (human skin tissue; with D-tryptophan ethyl ester hydrochloride 6 % w/v in water, AI compound 1 % w/v, 20 °C) was 16.011 ± 1.511 μg/cm^2/h, the “Skin penetration rate of AI compound” value (human skin tissue; with D-tryptophan isopropyl ester hydrochloride 6 % w/v in water, AI compound 1 % w/v, 20 °C) was 16.451 ± 1.473 μg/cm^2/h and the “Skin penetration rate of AI compound” value (human skin tissue; with D-tryptophan pentyl ester hydrochloride 6 % w/v in water, AI compound 1 % w/v, 20 °C) was 15.003 ± 1.513 μg/cm^2/h. The “Skin penetration rate of AI compound” value (human skin tissue; with L-isoleucine ethyl ester hydrochloride 6 % w/v in water, AI compound 0.5 % w/v, 20 °C) was 9.012 ± 0.148 μg/cm^2/h, the “Skin penetration rate of AI compound” value (human skin tissue; with L-isoleucine isopropyl ester hydrochloride 6 % w/v in water, AI compound 0.5 % w/v, 20 °C) was 9.015 ± 0.161 μg/cm^2/h and the “Skin penetration rate of AI compound” value (human skin tissue; with L-isoleucine methyl ester hydrochloride 6 % w/v in water, AI compound 0.5 % w/v, 20 °C) was 8.712 ± 0.168 μg/cm^2/h. The “Skin penetration rate of AI compound” value (human skin tissue; with L-isoleucine pentyl ester hydrochloride 6 % w/v in water, AI compound 0.5 % w/v, 20 °C) was 8.219 ± 0.201 μg/cm^2/h, the “Skin penetration rate of AI compound” value (human skin tissue; with L-leucine ethyl ester hydrochloride 6 % w/v in water, AI compound 0.5 % w/v, 20 °C) was 9.101 ± 0.153 μg/cm^2/h and the “Skin penetration rate of AI compound” value (human skin tissue; with L-leucine hexyl ester hydrochloride 6 % w/v in water, AI compound 0.5 % w/v, 20 °C) was 8.019 ± 0.181 μg/cm^2/h. For the same compound, the “Skin penetration rate of AI compound” value (human skin tissue; with L-leucine isopropyl ester hydrochloride 6 % w/v in water, AI compound 0.5 % w/v, 20 °C) was 9.371 ± 0.137 μg/cm^2/h, the “Skin penetration rate of AI compound” value (human skin tissue; with L-leucine methyl ester hydrochloride 6 % w/v in water, AI compound 0.5 % w/v, 20 °C) was 9.058 ± 0.131 μg/cm^2/h and the “Skin penetration rate of AI compound” value (human skin tissue; with L-tryptophan butyl ester hydrochloride 6 % w/v in water, AI compound 1 % w/v, 20 °C) was 15.676 ± 1.574 μg/cm^2/h. For the same compound, the “Skin penetration rate of AI compound” value (human skin tissue; with L-tryptophan isopropyl ester hydrochloride 6 % w/v in water, AI compound 1 % w/v, 20 °C) was 16.678 ± 1.567 μg/cm^2/h, the “Skin penetration rate of AI compound” value (human skin tissue; with L-tryptophan pentyl ester hydrochloride 6 % w/v in water, AI compound 1 % w/v, 20 °C) was 15.012 ± 1.315 μg/cm^2/h and the Solubility of melatonin ([1]; tryptophan isopropyl ester•HA 10% w/v, HA = 1/2H2SO4, 20° C.) was >1.4% (w/v). For the same compound, the Solubility of melatonin ([1]; tryptophan isopropyl ester•HA 10% w/v, HA = 1/3H3PO4, 20° C.) was >1.2% (w/v), the Solubility of melatonin ([1]; tryptophan isopropyl ester•HA 10% w/v, HA = 2/3H3PO4, 20° C.) was >1.3% (w/v) and the Solubility of melatonin ([1]; tryptophan isopropyl ester•HA 10% w/v, HA = Citric acid, 20° C.) was >1.2% (w/v). The Solubility of melatonin ([1]; tryptophan isopropyl ester•HA 10% w/v, HA = H2SO4, 20° C.) was >1.4% (w/v), the Solubility of melatonin ([1]; tryptophan isopropyl ester•HA 10% w/v, HA = HBr, 20° C.) was >1.4% (w/v) and the Solubility of melatonin ([1]; tryptophan isopropyl ester•HA 10% w/v, HA = HCl, 20° C.) was >1.5% (w/v). The Solubility of melatonin ([1]; tryptophan isopropyl ester•HA 10% w/v, HA = HF, 20° C.) was >1.5% (w/v), the Solubility of melatonin ([1]; tryptophan isopropyl ester•HA 10% w/v, HA = HI, 20° C.) was >1.3% (w/v) and the Solubility of melatonin ([1]; tryptophan isopropyl ester•HA 10% w/v, HA = acetic acid, 20° C.) was >1.4% (w/v). The Solubility of melatonin ([1]; tryptophan isopropyl ester•HA 10% w/v, HA = benzoic acid, 20° C.) was >1.3% (w/v), the Solubility of melatonin ([1]; tryptophan isopropyl ester•HA 10% w/v, HA = butyric acid, 20° C.) was >1.3% (w/v) and the Solubility of melatonin ([1]; tryptophan isopropyl ester•HA 10% w/v, HA = lactic acid, 20° C.) was >1.4% (w/v). The Solubility of melatonin ([1]; tyrosine isopropyl ester•HA 10% w/v, HA = 1/2H2SO4, 20° C.) was >1% (w/v), the Solubility of melatonin ([1]; tyrosine isopropyl ester•HA 10% w/v, HA = 1/3H3PO4, 20° C.) was >1.0% (w/v) and the Solubility of melatonin ([1]; tyrosine isopropyl ester•HA 10% w/v, HA = 2/3H3PO4, 20° C.) was >1.1% (w/v). For the same compound, the Solubility of melatonin ([1]; tyrosine isopropyl ester•HA 10% w/v, HA = H2SO4, 20° C.) was >1.2% (w/v), the Solubility of melatonin ([1]; tyrosine isopropyl ester•HA 10% w/v, HA = HBr, 20° C.) was >1.2% (w/v) and the Solubility of melatonin ([1]; tyrosine isopropyl ester•HA 10% w/v, HA = HCl, 20° C.) was >1.3% (w/v). For the same compound, the Solubility of melatonin ([1]; tyrosine isopropyl ester•HA 10% w/v, HA = HF, 20° C.) was >1.3% (w/v), the Solubility of melatonin ([1]; tyrosine isopropyl ester•HA 10% w/v, HA = HI, 20° C.) was >1% (w/v) and the Solubility of melatonin ([1]; tyrosine isopropyl ester•HA 10% w/v, HA = acetic acid, 20° C.) was >1.1% (w/v). For the same compound, the Solubility of melatonin ([1]; tyrosine isopropyl ester•HA 10% w/v, HA = benzoic acid, 20° C.) was >1% (w/v), the Solubility of melatonin ([1]; tyrosine isopropyl ester•HA 10% w/v, HA = butyric acid, 20° C.) was >1% (w/v) and the Solubility of melatonin ([1]; tyrosine isopropyl ester•HA 10% w/v, HA = citric acid, 20° C.) was >1% (w/v). For the same compound, the Solubility of melatonin ([1]; tyrosine isopropyl ester•HA 10% w/v, HA = lactic acid, 20° C.) was >1.1% (w/v).
